The test concerns the target T1, recombinant autotaxin (Homo sapiens, UniProt Q13822).
T1 construct: made in house; host or cells: Hi5 insect cells (baculovirus)
Kind of test: Autotaxin test (enzyme test), Amplex Red fluorescence with LPC substrate. Type of test: biochemical. As to conditions: autotaxin inhibition (enzyme test); for remaining activity at 10 µM: 10 μM compound, read-out: % Control at 10 μM. The protocol:
Autotaxin Inhibition (Enzyme Test)
Autotaxin Test (Enzyme Test)
The autotaxin activity is measured indirectly using Amplex Red reagent. Amplex Red is measured here as fluorogenic indicator for the H2O2 formed. In detail, autotaxin converts the substrate lysophosphatidylcholine (LPC) into phosphocholine and lysophosphatidylic acid (LPA). After this reaction, the phosphocholine is reacted with alkaline phosphatase to give inorganic phosphate and choline. In the next step, choline is oxidised by choline oxidase to give betaine, with formation of H2O2. H2O2 reacts with Amplex Red reagent in the presence of peroxidase (horseradish peroxidase) in a 1:1 stoichiometry and forms the highly fluorescent resorufin. The fluorescence is measured in a reaction-dependent kinetic mode in order that fluorescent signals from possible other fluorescent substances which are not involved in the reaction can be corrected out.
3 μl of a standard solution or of the test substances (substances with the name A(n)) in individual concentrations dissolved in 20 mM Hepes pH 7.2 with a maximum of 11% of DMSO are pre-incubated together with 20 μl (19 ng) of highly purified recombinant autotaxin in test buffer in a black microtitre plate provided with 384 wells at 22° C. for 30 min. The reaction is then initiated by addition of 10 μl of L-α-lysophosphatidylcholine (LPC), where the final concentration of LPC is 75 μM. The mixture is incubated at 37° C. for 90 min. After the incubation, Amplex Red reagent, peroxidase (horseradish peroxidase) and choline oxidase is added, and the fluorescence is immediately measured at 612 nm with excitation of 485 nm in a “Tecan Ultra multimode” reader. The activity of autotaxin is calculated indirectly via detection of the H2O2 formed.
• Microtitre plate: PS microplate, 384 wells, small volume, black Corning, Cat#3677 • Protein: recombinant autotaxin (Baculovirale Hi5 Expression) • Substrate: L-α-lysophosphatidylcholine (chicken egg)); Avanti Polar Lipids #830071 P • Standard: C14 LPA, Avanti Polar Lipids, Cat#857120P • Detection reagent: Amplex Red reagent; Invitrogen #A12222; 5 mg dissolved in 1.923 ml of DMSO peroxidase type VI-A (horseradish) from Sigma #P6782; 5 mg dissolved in 7.45 ml of test buffer, choline oxidase; Sigma # C5896; 50 U dissolved in 2.47 ml of test buffer • Detection reagent mix: 1:50 dilution of detection reagent in test buffer • Test buffer: 10 mM Tris HCl, Merck, Cat #1.08219, pH 8, 1 mM; CaCl2×2 H2O, Merck #1.02382

Take `NC(=O)C(=O)N1CCN2C(=O)c3cc(-c4ccco4)ccc3NC(=O)[C@H]2C1` [Compound A4, 2-((R)-7-Furan-2-yl-5,11-dioxo-3,4,5,10,11,11a-hexahydro-1H-2,4a,10-triazadibenzo[a,d]cyclo-hepten-2-yl)-2-oxoacetamide]: the remaining activity at 10 µM is 75%.

As for `O=C1Nc2ccc(-c3ccc(Cl)cc3)cc2C(=O)N2CCN(C(=O)[C@@H]3CSCN3)C[C@H]12` [Compound A5, (R)-7-(4-Chlorophenyl)-2-((R)-thiazolidine-4-carbonyl)-1,3,4,11a-tetrahydro-2H,10H-2,4a,10-triazadibenzo[a,d]cycloheptene-5,11-dione], the IC50 was greater than 1 µM.

With `O=C1Nc2ccc(-c3ccco3)cc2C(=O)N2CCN(C(=O)CO)C[C@H]12` [Compound A6, (R)-7-Furan-2-yl-2-(2-hydroxyacetyl)-1,3,4,11a-tetrahydro-2H,10H-2,4a,10-triazadibenzo[a,d]-cycloheptene-5,11-dione], the remaining activity at 10 µM was determined as 73%.

Consider `CC(C)(C)CC(=O)N1CCN2C(=O)c3cc(-c4ccccc4F)ccc3NC(=O)[C@H]2C1` [Compound A7, (R)-2-(3,3-Dimethylbutyryl)-7-(2-fluorophenyl)-1,3,4,11a-tetrahydro-2H,10H-2,4a,10-triaza-dibenzo[a,d]cycloheptene-5,11-dione], for which the IC50 was greater than 1 µM.

Turning to `O=C1Nc2ccc(-c3cccs3)cc2C(=O)N2CCN(C(=O)CO)C[C@H]12` [Compound A8, (R)-2-(2-Hydroxyacetyl)-7-thiophen-2-yl-1,3,4,11a-tetrahydro-2H,10H-2,4a,10-triazadibenzo[a,d]-cycloheptene-5,11-dione], the remaining activity at 10 µM worked out at 67%.

With `CN(C)c1ccc(C(=O)N2CCN3C(=O)c4cc(-c5ccc(Cl)cc5)ccc4NC(=O)[C@H]3C2)cc1` [Compound A9, (R)-7-(4-Chlorophenyl)-2-(4-dimethylamino-benzoyl)-1,3,4,11a-tetrahydro-2H,10H-2,4a,10-triazadibenzo[a,d]cycloheptene-5,11-dione], the remaining activity at 10 µM is 84%.

Regarding `O=C1Nc2ccc(-c3ccccc3F)cc2C(=O)N2CCN(C(=O)[C@@H]3CSCN3)C[C@H]12` [Compound A10, (R)-7-(2-Fluorophenyl)-2-((R)-thiazolidine-4-carbonyl)-1,3,4,11a-tetrahydro-2H,10H-2,4a,10-triazadibenzo[a,d]cycloheptene-5,11-dione], the remaining activity at 10 µM is 34% and the IC50 was greater than 1 µM.

`COc1ccc(-c2ccc3c(c2)C(=O)N2CCN(C(=O)c4cccc(F)c4)C[C@@H]2C(=O)N3)cc1` [Compound A11, (R)-2-(3-Fluorobenzoyl)-7-(4-methoxyphenyl)-1,3,4,11a-tetrahydro-2H,10H-2,4a,10-triaza-dibenzo[a,d]cycloheptene-5,11-dione]: the remaining activity at 10 µM amounted to 69%.

For `O=C1Nc2ccc(-c3ccccc3F)cc2C(=O)N2CCN(C(=O)[C@@H]3CSCN3)CC12` (stereo partly drawn) [Compound A12, 7-(2-Fluorophenyl)-2-((R)-thiazolidine-4-carbonyl)-1,3,4,11a-tetrahydro-2H,10H-2,4a,10-triaza-dibenzo[a,d]cycloheptene-5,11-dione], the half-inhibitory concentration (IC50) is greater than 1 µM.

On to `CC(C)(C)CC(=O)N1CCN2C(=O)c3cc(-c4ccccc4F)ccc3NC(=O)C2C1` (stereo not shown) [Compound A13, 2-(3,3-Dimethylbutyryl)-7-(2-fluorophenyl)-1,3,4,11a-tetrahydro-2H,10H-2,4a,10-triaza-dibenzo[a,d]cycloheptene-5,11-dione], for which the IC50 is greater than 1 µM.

Consider `O=C1Nc2ccc(-c3ccccc3F)cc2C(=O)N2CCN(C(=O)c3ccc4[nH]nnc4c3)CC12` (stereo not shown) [Compound A14, 2-(1H-Benzotriazole-5-carbonyl)-7-(2-fluorophenyl)-1,3,4,11a-tetrahydro-2H,10H-2,4a,10-triaza-dibenzo[a,d]cycloheptene-5,11-dione], for which the remaining activity at 10 µM amounted to 38% and the IC50 is greater than 1 µM.

With `O=C1Nc2ccc(-c3ccccc3F)cc2C(=O)N2CCN(C(=O)c3ccccn3)CC12` (stereo not shown) [Compound A15, 7-(2-Fluorophenyl)-2-(pyridine-2-carbonyl)-1,3,4,11a-tetrahydro-2H,10H-2,4a,10-triaza-dibenzo[a,d]cycloheptene-5,11-dione], the remaining activity at 10 µM was found to be 55% and the IC50 is greater than 1 µM.

For the compound `O=C1Nc2ccc(-c3ccccc3F)cc2C(=O)N2CCN(C(=O)[C@@H]3CSCN3)C[C@@H]12` [Compound A16, (S)-7-(2-Fluorophenyl)-2-((R)-thiazolidine-4-carbonyl)-1,3,4,11a-tetrahydro-2H,10H-2,4a,10-triazadibenzo[a,d]cycloheptene-5,11-dione], the remaining activity at 10 µM was 18% and the IC50 is greater than 1 µM.

Regarding `CC(C)(C)CC(=O)N1CCN2C(=O)c3cc(-c4ccccc4F)ccc3NC(=O)[C@@H]2C1` [Compound A17, (S)-2-(3,3-Dimethylbutyryl)-7-(2-fluorophenyl)-1,3,4,11a-tetrahydro-2H,10H-2,4a,10-triaza-dibenzo[a,d]cycloheptene-5,11-dione], the IC50 lay in the range of 0.1 to 1 µM.

As to `CC(C)(C)CC(=O)N1CCN2C(=O)c3cc(-c4ccc(C(F)(F)F)cc4)ccc3NC(=O)C2C1` (stereo not shown) [Compound A18, 2-(3,3-Dimethylbutyryl)-7-(4-trifluoromethylphenyl)-1,3,4,11a-tetrahydro-2H,10H-2,4a,10-triaza-dibenzo[a,d]cycloheptene-5,11-dione], the remaining activity at 10 µM worked out at 70% and the IC50 was greater than 1 µM.

As to `CC(C)(C)CC(=O)N1CCN2C(=O)c3cc(-c4cc(Cl)cc(Cl)c4)ccc3NC(=O)C2C1` (stereo not shown) [Compound A19, 7-(3,5-Dichlorophenyl)-2-(3,3-dimethylbutyryl)-1,3,4,11a-tetrahydro-2H,10H-2,4a,10-triaza-dibenzo[a,d]cycloheptene-5,11-dione], the remaining activity at 10 µM was 65% and the IC50 is greater than 1 µM.

In the case of `O=C1Nc2ccc(-c3ccccc3F)cc2C(=O)N2CCN(C(=O)CCc3ccccn3)CC12` (stereo not shown) [Compound A20, 7-(2-Fluorophenyl)-2-(3-pyridin-2-ylpropionyl)-1,3,4,11a-tetrahydro-2H,10H-2,4a,10-triaza-dibenzo[a,d]cycloheptene-5,11-dione], the remaining activity at 10 µM was determined as 63% and the IC50 was greater than 1 µM.

For the compound `O=C1Nc2ccc(-c3ccc(Cl)cc3)cc2C(=O)N2CCN(C(=O)[C@@H]3CCCCN3)CC12` (stereo partly drawn) [Compound A21, 7-(4-Chlorophenyl)-2-((S)-piperidine-2-carbonyl)-1,3,4,11a-tetrahydro-2H,10H-2,4a,10-triaza-dibenzo[a,d]cycloheptene-5,11-dione], the remaining activity at 10 µM worked out at 82% and the IC50 was greater than 1 µM.

Take `CS(=O)(=O)CC(=O)N1CCN2C(=O)c3cc(-c4ccc(Cl)cc4)ccc3NC(=O)C2C1` (stereo not shown) [Compound A22, 7-(4-Chlorophenyl)-2-(2-methanesulfonylacetyl)-1,3,4,11a-tetrahydro-2H,10H-2,4a,10-triaza-dibenzo[a,d]cycloheptene-5,11-dione]: the remaining activity at 10 µM stood at 61% and the IC50 was greater than 1 µM.

As for `CCCc1nn(C)cc1C(=O)N1CCN2C(=O)c3cc(-c4ccc(Cl)cc4)ccc3NC(=O)C2C1` (stereo not shown) [Compound A23, 7-(4-Chlorophenyl)-2-(1-methyl-3-propyl-1H-pyrazole-4-carbonyl)-1,3,4,11a-tetrahydro-2H,10H-2,4a,10-triazadibenzo[a,d]cycloheptene-5,11-dione], the remaining activity at 10 µM amounted to 54% and the concentration for half-maximal inhibition (IC50) was greater than 1 µM.

Consider `O=C1Nc2ccc(-c3ccc(Cl)cc3)cc2C(=O)N2CCN(C(=O)CC3CCCCC3)CC12` (stereo not shown) [Compound A24, 7-(4-Chlorophenyl)-2-(2-cyclohexylacetyl)-1,3,4,11a-tetrahydro-2H,10H-2,4a,10-triaza-dibenzo[a,d]cycloheptene-5,11-dione], for which the remaining activity at 10 µM was found to be 67% and the IC50 is greater than 1 µM.

For the compound `O=C1Nc2ccc(-c3ccc(Cl)cc3)cc2C(=O)N2CCN(C(=O)CC3CCCC3)CC12` (stereo not shown) [Compound A25, 7-(4-Chlorophenyl)-2-(2-cyclopentylacetyl)-1,3,4,11a-tetrahydro-2H,10H-2,4a,10-triaza-dibenzo[a,d]cycloheptene-5,11-dione], the remaining activity at 10 µM was 11% and the IC50 is greater than 1 µM.
